Results on 2 molecules are retold here after article PMC11613329, “An Optimized Marinopyrrole A Derivative Targets 6-Phosphoglucosamine Synthetase to Inhibit Methicillin-Resistant Staphylococcus aureus” (ACS Central Science, 2024).

The target of experiment [1] is T1, 6-Phosphoglucosamine synthetase (GlmS) (Staphylococcus aureus, UniProt Q5HE49).
T1 sequence (Q5HE49 2-601): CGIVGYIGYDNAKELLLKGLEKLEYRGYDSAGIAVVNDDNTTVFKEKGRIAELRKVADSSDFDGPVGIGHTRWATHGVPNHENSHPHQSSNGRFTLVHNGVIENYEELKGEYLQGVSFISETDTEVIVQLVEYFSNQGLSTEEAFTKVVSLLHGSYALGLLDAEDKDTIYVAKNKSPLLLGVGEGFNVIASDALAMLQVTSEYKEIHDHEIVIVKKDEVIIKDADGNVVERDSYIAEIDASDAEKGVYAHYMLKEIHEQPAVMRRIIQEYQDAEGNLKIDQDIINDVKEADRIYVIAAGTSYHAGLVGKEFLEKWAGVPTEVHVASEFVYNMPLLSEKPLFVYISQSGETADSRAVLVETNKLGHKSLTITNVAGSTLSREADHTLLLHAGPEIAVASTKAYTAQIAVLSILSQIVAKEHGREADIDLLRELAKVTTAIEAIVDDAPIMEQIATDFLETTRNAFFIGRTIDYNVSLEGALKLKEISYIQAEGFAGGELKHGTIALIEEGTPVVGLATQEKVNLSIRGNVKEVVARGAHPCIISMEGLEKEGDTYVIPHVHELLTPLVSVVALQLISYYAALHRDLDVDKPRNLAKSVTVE
Description: in vitro GlmS enzymatic assay, positive control. In kind it is biochemical.

The target in experiment [2] is T1, 6-Phosphoglucosamine synthetase (GlmS). Description: SPR with purified GlmS; also thermal stability shift and enzymatic inhibition (IC50 […]). In kind it is binding.

pKd: −log10 of the molar value.

A word on the pKd: it is the Kd on a negative log10 scale, so that one unit is a factor of ten.

Regarding `COC(=O)/C=C/C(=O)NC[C@H](N)C(=O)O` [FMDP, N^3-(4-metoxyfumaroyl)-(S)-2,3-diaminopropanoic acid], the “in vitro GlmS enzymatic assay, positive control” value in experiment [1] is recorded as “The reported FMDP was used as a positive control”.
Regarding `O=C(c1ccc(C(F)(F)F)cc1O)c1[nH]c(Cl)c(Cl)c1-n1c(C(=O)c2ccc(C(F)(F)F)cc2O)cc(Cl)c1Cl` [MA-D1], in experiment [2], the pKd was 6.41.
